Results as given in US8557222B2, “Radiopharmaceutical imaging of neurodegenerative diseases” (priority 2008, dated 2013).

Legend:
β-amyloid plaque = test: PET imaging of β-amyloid plaque with ^18F-AV-45 (fused/simulated dual radiopharmaceutical images); type: in vivo, human; settings: imaged between 70 and 80 minutes, simulated fused image
Procedure: (§1) Data was generated from the radiopharmaceutical imaging of β-amyloid plaque and nigrostriatal dopaminergic degeneration utilizing dual radiopharmaceuticals. The radiopharmaceuticals utilized included ^18F-AV-45, which targets β-amyloid plaque and ^18F-AV-133, which targets nigrostriatal neurons. The radiopharmaceuticals were administered via intravenous injection to subjects who were clinically diagnosed with Parkinson's Disease (PD) or Alzheimer's Disease (AD).
(§2) Data was analyzed for PD patients (PD_AV133) and Healthy Controls (HC_AV133) as well as for AD patients (AD_AV45) and Healthy Controls (HC_AV45). Data and images derived from subjects in each category were analyzed individually. Data and images from an average of 4 subjects in each respective category was also analyzed and used as the basis of this protocol. The optimal imaging protocol was judged based on the following criteria: clarity of images/data in the cortical, grey, and white volumes of interest (VOIs) of the brain (relating to diagnosis of AD) and the striatal VOIs of the brain (relating to diagnosis of PD/DLB); ease and level of certainty of the individual diagnoses of the presence or absence of AD, PD, and DLB; minimum level of radiation injected into a patient; and minimum protocol completion time.
(§3) FIGS. 1, 4, 7 and 10 were created by the fusion of two separate image data sets, one from a PET scan of an ^18F amyloid plaque-binding radiopharmaceutical (^18F-AV-45) and one from a PET scan of an ^18F VMAT2 targeted radiopharmaceutical (^18F-AV-133). FIG. 1 is a simulated image of the brain of a healthy individual with no observable amyloid plaques and normal dopaminergic neurons (imaged between 70 and 80 minutes). […] This image pattern is consistent with a pure AD diagnosis, with no evidence of loss of striatal neurons (which would be observed if PD or DLB were also present). […] This image pattern is consistent with a pure PD diagnosis, without evidence of AD amyloid plaque pathology.
(§4) The Statistical Parametric Mapping (SPM2) application in MATLAB® (Version 7.3 R2006b, MathWorks, Inc.) was used to align the raw images and create a mean image from the image set. The mean image was normalized to a SPECT template, although in other experiments, other templates were used. Using the image viewer application in MRICro, the normalized mean image was compared with the template image to confirm that the two images align. […] Standardized uptake values (SUVs) were calculated from the counts extracted from the images. […]
(§5) The cortical regions are where amyloid plaques are found in the brain using the ^18F-AV-45 radiopharmaceutical, while the striatal regions contain dopaminergic neurons detected with the ^18F-AV-133 radiopharmaceutical. […]

[1] = Brain washout of first radiopharmaceutical in the dual imaging protocol; type: in vivo, human; settings: 10 mCi intravenous; at second acquisition, 30 minutes after ^18F-AV-133 given about 50 minutes after start of protocol
Source text: The cortical regions are where amyloid plaques are found in the brain using the ^18F-AV-45 radiopharmaceutical, while the striatal regions contain dopaminergic neurons detected with the ^18F-AV-133 radiopharmaceutical. […] FIGS. 5 and 6 show simulated activity curves for cortical and striatal regions of the brain, respectively, for an individual with AD. FIGS. 8 and 9 show simulated activity curves for cortical and striatal regions of the brain, respectively, of an individual with PD while FIGS. 11 and 12 show simulated activity curves for cortical and striatal regions of the brain, respectively, of an individual with AD and PD. […] Whenever the two radiopharmaceuticals were considered as being simultaneously present in the brain, the SUVs from both radiopharmaceuticals for each region were summed together, and the summed SUVs were plotted. This allowed for the simulation/prediction of the interaction and possible interference of activity of one radiopharmaceutical with the other when both are present in the brain during the imaging of the subject.
Through analyzing and experimenting with the plots and images described above, a protocol for the simultaneous imaging of AD plaques and dopaminergic neuronal degeneration was created. […] The total protocol time was about 80 to 90 minutes. […]

VMAT2 = target: T1, VMAT2 (Homo sapiens, UniProt Q05940); test: PET imaging of nigrostriatal dopaminergic neurons with ^18F-AV-133 (fused/simulated dual radiopharmaceutical images); type: in vivo; settings: imaged between 70 and 80 minutes, simulated fused image
T1 construct: from tissue; host or cells: brain (striatal regions, dopaminergic neurons) of living human subjects, in vivo PET
Procedure: as §1, §2, §3, §4, §5

[2] = FIG. 4, individual with clinical signs of AD
[3] = FIG. 7, individual exhibiting symptoms of PD
[4] = FIG. 10, individual with both AD and PD

T1 sequence (Q05940 whole entry, the tested form may be a part): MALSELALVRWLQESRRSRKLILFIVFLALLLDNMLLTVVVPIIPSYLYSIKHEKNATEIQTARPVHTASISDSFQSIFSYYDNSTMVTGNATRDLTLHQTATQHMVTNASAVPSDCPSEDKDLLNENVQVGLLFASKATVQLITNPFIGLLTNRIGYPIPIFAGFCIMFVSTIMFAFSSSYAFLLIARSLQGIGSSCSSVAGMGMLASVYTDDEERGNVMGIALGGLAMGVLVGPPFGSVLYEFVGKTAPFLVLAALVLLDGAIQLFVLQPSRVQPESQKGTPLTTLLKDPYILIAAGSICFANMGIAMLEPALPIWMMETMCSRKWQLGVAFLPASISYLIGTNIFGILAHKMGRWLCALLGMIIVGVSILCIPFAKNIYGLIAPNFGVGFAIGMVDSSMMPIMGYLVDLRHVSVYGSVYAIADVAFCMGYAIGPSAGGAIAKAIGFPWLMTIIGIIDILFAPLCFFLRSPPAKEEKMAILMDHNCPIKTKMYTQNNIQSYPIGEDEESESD

Row | SMILES | cortical brain signal from ^18F-AV-45 (β-amyloid plaque; FIG. 1, healthy individual) | ^18F-AV-45 radiopharmaceutical signal (amyloid plaque deposits) (β-amyloid plaque; [2]) | amyloid signal in the cortical brain regions from ^18F-AV-45 (β-amyloid plaque; [3]) | ^18F-AV-45 retention (amyloid plaques) (β-amyloid plaque; [4]) | washout and radioactive decay of ^18F-AV-45 from brain [1] | signal in the nigrostriatal region from ^18F-AV-133 (VMAT2; FIG. 1, healthy individual) | uptake of ^18F-AV-133 in the nigrostriatal region of the brain (VMAT2; [2]) | intensity of ^18F-AV-133 in the striatal regions (VMAT2; [3]) | uptake of AV-133 in the striatal regions (VMAT2; [4])
1 | CNc1ccc(/C=C/c2ccc(OCCOCCOCC[18F])nc2)cc1 [^18F-AV-45, (E)-4-(2-(6-(2-(2-(2-[^18F]fluoroethoxy)ethoxy)ethoxy)pyridin-3-yl)vinyl)-N-methylbenzenamine] | no appreciable cortical brain signal | Amyloid plaque deposits are visible in the frontal region of the brain | does not show evidence of amyloid signal in the cortical brain regions | retention in cortical brain | essentially complete |  |  |  | 
2 | COc1cc2c(cc1OCCC[18F])CCN1C[C@@H](CC(C)C)[C@H](O)C[C@H]21 [^18F-AV-133, (2R,3R,11bR)-9-(3-[18F]fluoropropoxy)-3-isobutyl-10-methoxy-2,3,4,6,7,11b-hexahydro-1H pyrido[2,1a]isoquinolin-2-ol] |  |  |  |  |  | strong signal in the nigrostriatal region | normal uptake | lack of intensity in the striatal regions | diminished uptake
